Target: purified VDAC1 (Homo sapiens, UniProt P21796)
Assay: Glass-bound peptide array probed with purified VDAC1 and anti-VDAC1 antibodies
Assay type: binding
Design: key: +: low; ++: medium; +++: high
Details: glass-bound peptide array incubated 4 h with purified VDAC1 (64 nM), chemiluminescence; for Spot intensity, detected using anti-N-terminus VDAC1: antibody against VDAC1 N-terminus; for Spot intensity, detected using anti-VDAC1 internal sequence: antibody against VDAC1 amino acids 150-250
Method: A customized peptide array was produced by INTAVIS Peptide Services (GmbH & Co. KG, Tübingen, Germany). It comprised 768 peptide sequences derived from 19 VDAC1-interacting proteins that were arrayed on a glass slide. Each peptide was composed of 25 amino acids with an overlap of 15 amino acids with the peptides before and following it.
The interaction of purified VDAC1 with glass-bound peptide arrays was assessed by washing the slide three times, 10 min each, with TBST (150 mM NaCl, 50 mM Tris/HCl, pH 7.4, 0.1% Tween-20), followed by overnight incubation with blocking buffer (TBS, pH 7.8, containing low-fat dry milk, 2.5%, w/v) at 4 °C. Then slides were incubated with purified VDAC1 in protein-interacting buffer (20 mM HEPES, 100 mM KCl, pH,7.4, PBS) for 4 h at room temperature (RT). After washing, with TBST, slides were incubated overnight at 4 °C with anti-VDAC1 antibody against a sequence of 150–250 amino acids or against the VDAC1-N-terminus. Slides were then washed with TBST, followed by the appropriate secondary anti-HRP conjugated antibody for 2 h at RT. They were washed again with TBST and developed using enhanced chemiluminescence EZ-ECL (Biological Industries), according to the manufacturer’s instructions. The signal was captured in the dark using FUSION-FX (Vilber Lourmat) software.

purified VDAC1, sequence (P21796 whole entry, species assumed): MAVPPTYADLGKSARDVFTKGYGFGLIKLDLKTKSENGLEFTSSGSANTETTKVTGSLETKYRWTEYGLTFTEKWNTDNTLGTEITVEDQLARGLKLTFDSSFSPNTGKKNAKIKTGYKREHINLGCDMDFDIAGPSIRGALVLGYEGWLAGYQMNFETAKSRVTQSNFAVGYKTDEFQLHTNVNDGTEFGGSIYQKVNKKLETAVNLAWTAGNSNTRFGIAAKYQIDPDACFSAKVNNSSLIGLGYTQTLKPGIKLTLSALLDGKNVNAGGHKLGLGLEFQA

Sequence: VGKVIPELNGKLTGMAFRVPTANVS [2C14, array peptide from GAPDH1]
- Spot intensity, detected using anti-N-terminus VDAC1: +++

Sequence: ITATQKTVDGPSGKLWRDGRGALQN [2C10, array peptide from GAPDH1]
- Spot intensity, detected using anti-N-terminus VDAC1: +

Sequence: SVKRVTQDPKLQMGKKLPLHLTLPQ [1N4, array peptide from CD4]
- Spot intensity, detected using anti-N-terminus VDAC1: ++

Sequence: VGKSGTEREFRGLGDCLVKITKSDG [1G4, array peptide from ANT3]
- Spot intensity, detected using anti-N-terminus VDAC1: +++

Sequence: HSSYPAGTEDDEGMGEEPSPFRGRS [1A9, array peptide from BAD]
- Spot intensity, detected using anti-N-terminus VDAC1: ++

Sequence: VSSITASLRFDGALNVDLTEFQTNL [2A14, array peptide from tubulin alpha 1b]
- Spot intensity, detected using anti-N-terminus VDAC1: +
- Spot intensity, detected using anti-VDAC1 internal sequence: +++

Sequence: FDGALNVDLTEFQTNLVPYPRIHFP [2A15, array peptide from tubulin alpha 1b]
- Spot intensity, detected using anti-VDAC1 internal sequence: ++

Sequence: KLQMGKKLPLHLTLPQALPQYAGSG [1N5, array peptide from CD4]
- Spot intensity, detected using anti-N-terminus VDAC1: ++

Sequence: IMGWTLDFLRERLLGWIQDQGGWGL [1B11, array peptide from BAX]
- Spot intensity, detected using anti-N-terminus VDAC1: +++

Sequence: ISAMVLTKMKETAEAYLGKKVTHAV [2K10, array peptide from BiP1]
- Spot intensity, detected using anti-N-terminus VDAC1: ++

Sequence: PYQLTWGRPSTRIQQQLGQLTLENL [2F24]
- Spot intensity, detected using anti-N-terminus VDAC1: +++

Sequence: ERPLTKDNHLLGTFDLTGIPPAPRG [2L22, array peptide from BiP1]
- Spot intensity, detected using anti-N-terminus VDAC1: ++
- Spot intensity, detected using anti-VDAC1 internal sequence: +

Sequence: AGATSSLTPSRGPVSPSVSFQPLAR [1K9, array peptide from MAVS]
- Spot intensity, detected using anti-N-terminus VDAC1: +++

Sequence: RERLLGWIQDQGGWGLPLAESLKRL [1B12, array peptide from BAX]
- Spot intensity, detected using anti-N-terminus VDAC1: +++
- Spot intensity, detected using anti-VDAC1 internal sequence: +

Sequence: QVSVLPEGGETPLFKQFFKNWRDPD [2H20, array peptide from gelsolin isoform b]
- Spot intensity, detected using anti-N-terminus VDAC1: ++

Sequence: NMKLTRAQFEGIVTDLIRRTIAPCQ [2O9, array peptide from HSP-70]
- Spot intensity, detected using anti-N-terminus VDAC1: +
- Spot intensity, detected using anti-VDAC1 internal sequence: ++

Sequence: ASIHGYLGIVELLVSLGADVNAQEP [2F17]
- Spot intensity, detected using anti-N-terminus VDAC1: ++
- Spot intensity, detected using anti-VDAC1 internal sequence: +

Sequence: PASTGAAKAVGKVIPELNGKLTGMA [2C13, array peptide from GAPDH1]
- Spot intensity, detected using anti-N-terminus VDAC1: +

Sequence: EDFSETLTRAKFEELNMDLFRSTMK [2L5, array peptide from BiP1]
- Spot intensity, detected using anti-N-terminus VDAC1: +

Sequence: TPPPAEEEEDELYRQSLEIISRYLR [2D22, array peptide from Mcl-1]
- Spot intensity, detected using anti-N-terminus VDAC1: ++

Sequence: AIYDICRRNLDIERPTYTNLNRLIS [2A11, array peptide from tubulin alpha 1b]
- Spot intensity, detected using anti-N-terminus VDAC1: +++
- Spot intensity, detected using anti-VDAC1 internal sequence: +

Sequence: KIISNASCTTNCLAPLAKVIHDNFG [2C6, array peptide from GAPDH1]
- Spot intensity, detected using anti-N-terminus VDAC1: +++
- Spot intensity, detected using anti-VDAC1 internal sequence: ++

Sequence: PLAESITDVLVRTKRDWLVKQRGWD [2E12, array peptide from Mcl-1]
- Spot intensity, detected using anti-N-terminus VDAC1: ++

Sequence: IEIESFYEGEDFSETLTRAKFEELN [2L4, array peptide from BiP1]
- Spot intensity, detected using anti-N-terminus VDAC1: +
- Spot intensity, detected using anti-VDAC1 internal sequence: ++

Sequence: SPPSTLTPDSRRVARPPPIGAEVPD [2D11, array peptide from Mcl-1]
- Spot intensity, detected using anti-N-terminus VDAC1: +

Sequence: EVAASAILTAQLDEELGGTPVQSRV [2I10, array peptide from gelsolin isoform b]
- Spot intensity, detected using anti-VDAC1 internal sequence: +

Sequence: LVFHSFGGGTGSGFTSLLMERLSVD [2A3, array peptide from tubulin alpha 1b]
- Spot intensity, detected using anti-N-terminus VDAC1: +++
- Spot intensity, detected using anti-VDAC1 internal sequence: +

Sequence: KFHGTVKAENGKLVINGNPITIFQE [2B20, array peptide from GAPDH1]
- Spot intensity, detected using anti-VDAC1 internal sequence: +++

Sequence: QGCLASVGVLTQSCTTPHLHSILKA [2F13]
- Spot intensity, detected using anti-N-terminus VDAC1: ++

Sequence: ALSSQHQARIEIESFYEGEDFSETL [2L3, array peptide from BiP1]
- Spot intensity, detected using anti-N-terminus VDAC1: ++

Sequence: SSWTRVFQSWWDRNLGRGSSAPSQ [1A17, array peptide from BAD]
- Spot intensity, detected using anti-N-terminus VDAC1: +

Sequence: TEDELPYDDCVFGGQRLTL [2G6]
- Spot intensity, detected using anti-N-terminus VDAC1: +

Sequence: IEDFKAKKKELEEIVQPIISKLYGS [2M14, array peptide from BiP1]
- Spot intensity, detected using anti-N-terminus VDAC1: ++
- Spot intensity, detected using anti-VDAC1 internal sequence: ++

Sequence: GRTWNDPSVQQDIKFLPFKVVEKKT [2K5, array peptide from BiP1]
- Spot intensity, detected using anti-N-terminus VDAC1: +

Sequence: TKVPELIRTIMGWTLDFLRERLLGW [1B10, array peptide from BAX]
- Spot intensity, detected using anti-N-terminus VDAC1: +++

Sequence: SPFRGRSRSAPPNLWAAQRYGRELR [1A11, array peptide from BAD]
- Spot intensity, detected using anti-N-terminus VDAC1: +

Sequence: DQCTGLQGFLVFHSFGGGTGSGFTS [2A2, array peptide from tubulin alpha 1b]
- Spot intensity, detected using anti-N-terminus VDAC1: +

Sequence: RGPTAARHQDSWNGLSHEAFRLVSR [2M21, array peptide from HSP-70]
- Spot intensity, detected using anti-N-terminus VDAC1: +

Sequence: ELEEIVQPIISKLYGSAGPPPTGEE [2M15, array peptide from BiP1]
- Spot intensity, detected using anti-N-terminus VDAC1: ++
- Spot intensity, detected using anti-VDAC1 internal sequence: +++

Sequence: DDEGMGEEPSPFRGRSRSAPPNLWA [1A10, array peptide from BAD]
- Spot intensity, detected using anti-N-terminus VDAC1: ++

Sequence: KCELSSSVQTDINLPYLTMDSSGPK [2O6, array peptide from HSP-70]
- Spot intensity, detected using anti-N-terminus VDAC1: +

Sequence: KGLPRPKSAGTATQMRQSSSWTRVF [1A15, array peptide from BAD]
- Spot intensity, detected using anti-N-terminus VDAC1: ++

Sequence: TDVLLLDVTPLSLGIETLGGVFTKL [2O19, array peptide from HSP-70]
- Spot intensity, detected using anti-N-terminus VDAC1: ++
- Spot intensity, detected using anti-VDAC1 internal sequence: +

Sequence: STRIQQQLGQLTLENLQMLPESEDE [2G1]
- Spot intensity, detected using anti-N-terminus VDAC1: ++

Sequence: TPVQSRVVQGKEPAHLMSLFGGKPM [2I12, array peptide from gelsolin isoform b]
- Spot intensity, detected using anti-N-terminus VDAC1: +

Sequence: YKSEGTFGIHVAENPSIQLLEGNPG [1L13, array peptide from MAVS]
- Spot intensity, detected using anti-VDAC1 internal sequence: ++

Sequence: GGVFTKLINRNTTIPTKKSQVFSTA [2O21, array peptide from HSP-70]
- Spot intensity, detected using anti-N-terminus VDAC1: +

Sequence: FRDEGGKAFFKGAWSNVLRGMGGAF [1G17, array peptide from ANT3]
- Spot intensity, detected using anti-N-terminus VDAC1: +

Sequence: AVIGGSAGASPPSTLTPDSRRVARP [2D10, array peptide from Mcl-1]
- Spot intensity, detected using anti-N-terminus VDAC1: +

Sequence: MEVIRQVKGDLAFLNFQNNLQQTPL [2F6]
- Spot intensity, detected using anti-N-terminus VDAC1: +

Sequence: FPTQALNFAFKDKYKQIFLGGVDKH [1F21, array peptide from ANT3]
- Spot intensity, detected using anti-N-terminus VDAC1: +++

Sequence: AKYDDIKKVVKQASEGPLKGILGYT [2C18, array peptide from GAPDH1]
- Spot intensity, detected using anti-N-terminus VDAC1: +++
- Spot intensity, detected using anti-VDAC1 internal sequence: ++

Sequence: AVDTDSPREVFFRVAADMFSDGNFN [1B5, array peptide from BAX]
- Spot intensity, detected using anti-N-terminus VDAC1: +++

Sequence: EQGVLSFWRGNLANVIRYFPTQALN [1F19, array peptide from ANT3]
- Spot intensity, detected using anti-N-terminus VDAC1: +++
- Spot intensity, detected using anti-VDAC1 internal sequence: +

Sequence: IKKKEERADLIAYLKKATNE [1D16, array peptide from cytochrome c]
- Spot intensity, detected using anti-N-terminus VDAC1: ++
- Spot intensity, detected using anti-VDAC1 internal sequence: +

Sequence: LDIERPTYTNLNRLISQIVSSITAS [2A12, array peptide from tubulin alpha 1b]
- Spot intensity, detected using anti-VDAC1 internal sequence: ++

Sequence: FRGLGDCLVKITKSDGIRGLYQGFS [1G5, array peptide from ANT3]
- Spot intensity, detected using anti-N-terminus VDAC1: +++
